Source: patent US10221163B2 (priority 2015, dated 2019)
Where a name gives a salt, the structure may show the parent alone. Read-outs that look alike come from different tables or passages of the source.

Assays:
[1] = test system: Pseudomonas aeruginosa efflux− (MB9799), IMP-1; format: cell-based; conditions: C, D serine β-lactamase inhibitor closely related to relebactam; for P. aeruginosa expressing IMP-1, efflux − (MB9799) MITC95: concentration restoring susceptibility to imipenem at 2 μg/mL in the presence of a class A; for Concentration of metallo-β-lactamase inhibitor which restores susceptibility of efflux − (MB9799) strain to imipenem: imipenem at 2 μg/mL, in the presence of a class A
In short: (§1)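 PAO1 pair, broth microdilution; fixed β-lactam (imipenem/ceftazidime) at ~CLSI breakpoint + fixed class A/C BLI for AmpC; serial MBLi titration; endpoint = MBLi conc. restoring susceptibility; MB9798:MB9799 ratio = efflux liability.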

[2] = test system: Escherichia coli expressing NDM-1 (CLB30005, CLB30016); format: cell-based; conditions: with imipenem 1 μg/ml; for Escherichia coli expressing NDM-1 (CLB30016) MITC95: 95% inhibition of bacterial growth; for Escherichia coli MITC95: NDM-1 strain, 95% inhibition of growth
In short: (§2)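 Imipenem 1 μg/ml + inhibitor; MBL-expressing clinical strains in 1.1×CAMHB, inoculum from saline suspension diluted 1:100; 35° C, 22–24 h; absorbance read-out.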

[3] = test system: Klebsiella pneumoniae expressing VIM-1 (IHMA599644); format: cell-based; conditions: for Klebsiella pneumoniae expressing VIM-1 (IHMA599644) MITC95: with imipenem 1 μg/ml, 95% inhibition of bacterial growth; for Klebsiella pneumoniae MITC95: VIM-1 strain IHMA599644, with imipenem 1 μg/ml, 95% inhibition of growth
In short: as §2

[4] = test system: Serratia marcescens expressing IMP-1 (CL5741); format: cell-based; conditions: for Serratia marcescens expressing IMP-1 (CL5741) MITC95: with imipenem 1 μg/ml, 95% inhibition of bacterial growth; for Serratia marcescens MITC95: IMP-1 strain CL5741, with imipenem 1 μg/ml, 95% inhibition of growth
In short: as §2

VIM-1 = VIM-1 (Pseudomonas aeruginosa (strain ATCC 15692 / DSM 22644 / CIP 104116 / JCM 14847 / LMG 12228 / 1C / PRS 101 / PAO1), UniProt A0A0F7KYQ8); test: biochemical; conditions: CCF2-FA substrate, 30 pM enzyme, 2 hours at 25° C.
In short: (§3)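 Semi-log dose-response curves, fitted with a 4-parameter model, gave IC50s. The underlying signal was CCF2-FA fluorescence following 2 hours at 25° C with enzyme, substrate and inhibitor combined.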

NDM-1 = NDM-1 (Klebsiella pneumoniae, UniProt C7C422); test: biochemical; format: biochemical; conditions: fluorescence assay, CCF2-FA substrate, 1 pM enzyme, 2 hours at 25° C., read-out: NDM-1 IC50
In short: as §3

IMP-1 = IMP-1 (Serratia marcescens, UniProt P52699); test: biochemical; format: biochemical; conditions: fluorescence assay, CCF2-FA substrate, 2 pM enzyme, 2 hours at 25° C., read-out: IMP-1 IC50
In short: as §3

[5] = test system: Pseudomonas aeruginosa MB9798 vs MB9799
In short: as §1

[6] = test system: Pseudomonas aeruginosa efflux+ (MB9798), IMP-1; format: cell-based; set-up: Concentration of metallo-β-lactamase inhibitor which restores susceptibility of efflux + (MB9798) strain to imipenem: unit not given here; conditions: C, D serine β-lactamase inhibitor closely related to relebactam; for P. aeruginosa expressing IMP-1, efflux + (MB9798) MITC95: concentration restoring susceptibility to imipenem at 2 μg/mL in the presence of a class A; for Concentration of metallo-β-lactamase inhibitor which restores susceptibility of efflux + (MB9798) strain to imipenem: imipenem at 2 μg/mL, in the presence of a class A
In short: as §1

[7] = ratio MITC95 PA_9798/MITC95 PA_9799
[8] = fluorescence assay, read-out: VIM-1 IC50
[9] = fold difference between efflux+ (MB9798) and efflux− (MB9799) strains, imipenem at 2 μg/mL

IMP-1, sequence (P52699 whole entry, looked up, species assumed): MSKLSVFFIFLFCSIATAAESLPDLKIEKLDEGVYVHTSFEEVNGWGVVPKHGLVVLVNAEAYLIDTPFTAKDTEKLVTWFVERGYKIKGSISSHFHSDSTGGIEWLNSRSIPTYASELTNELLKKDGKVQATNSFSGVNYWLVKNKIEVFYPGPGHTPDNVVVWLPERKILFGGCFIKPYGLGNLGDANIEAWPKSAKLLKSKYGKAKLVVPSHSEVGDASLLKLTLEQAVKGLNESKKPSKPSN
NDM-1, sequence (C7C422 whole entry, looked up, species assumed): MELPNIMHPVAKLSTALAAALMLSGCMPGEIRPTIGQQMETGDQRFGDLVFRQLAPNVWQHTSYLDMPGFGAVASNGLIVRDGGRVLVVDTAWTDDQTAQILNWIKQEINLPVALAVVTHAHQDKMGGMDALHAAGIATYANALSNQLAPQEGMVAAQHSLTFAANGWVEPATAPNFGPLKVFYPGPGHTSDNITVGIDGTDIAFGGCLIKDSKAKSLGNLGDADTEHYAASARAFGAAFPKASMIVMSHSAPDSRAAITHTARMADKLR

Structure (SMILES): Nc1nc2c(-c3ccc(S(=O)(=O)NCC4COCCN4)c(S(N)(=O)=O)c3-c3nnn[nH]3)cccc2s1.O=C(O)C(F)(F)F (stereo not drawn) [Example 96, 3-((4-(2-aminobenzo[d]thiazol-4-yl)-2-sulfamoyl-3-(1H-tetrazol-5-yl)phenylsulfonamido)methyl)morpholin-4-ium 2,2,2-trifluoroacetate]
- P. aeruginosa expressing IMP-1, efflux − (MB9799) MITC95 [1]: 3.125 µM
- Escherichia coli expressing NDM-1 (CLB30016) MITC95 [2]: 6.25 µM
- Klebsiella pneumoniae expressing VIM-1 (IHMA599644) MITC95 [3]: 6.25 µM
- Serratia marcescens expressing IMP-1 (CL5741) MITC95 [4]: 3.125 µM
- IC50 (VIM-1; VIM-1 IC50, fluorescence assay): 0.299 nM
- IC50 (NDM-1): 0.0757 nM
- IC50 (IMP-1): 0.402 nM
- Efflux ratio [5, 7]: 1.00
- P. aeruginosa expressing IMP-1, efflux + (MB9798) MITC95 [6]: 3.125 µM

Structure (SMILES): C[C@H](N)CNS(=O)(=O)c1ccc(-c2ccc(N)nc2)c(-c2nn[nH]n2)c1S(N)(=O)=O [Example 479, (S)—N1-(2-aminopropyl)-4-(6-aminopyridin-3-yl)-3-(2H-tetrazol-5-yl) benzene-1,2-disulfonamide]
- Concentration of metallo-β-lactamase inhibitor which restores susceptibility of efflux − (MB9799) strain to imipenem [1]: 0.7813
- Escherichia coli MITC95 [2]: 0.1953 µM
- Klebsiella pneumoniae MITC95 [3]: 1.563 µM
- Serratia marcescens MITC95 [4]: 0.7813 µM
- IC50 (VIM-1; [8]): 0.299 nM
- IC50 (NDM-1): 0.224 nM
- IC50 (IMP-1): 0.664 nM
- Efflux ratio [5, 9]: 1.00
- Concentration of metallo-β-lactamase inhibitor which restores susceptibility of efflux + (MB9798) strain to imipenem [6]: 0.7813

Structure (SMILES): Nc1nc2c(-c3ccc(S(=O)(=O)NCC4(N)CC4)c(S(N)(=O)=O)c3-c3nn[nH]n3)cccc2s1 [Example 149, 4-(2-aminobenzo[d]thiazol-4-yl)-N1-((1-aminocyclopropyl)methyl)-3-(2H-tetrazol-5-yl)benzene-1,2-disulfonamide]
- P. aeruginosa expressing IMP-1, efflux − (MB9799) MITC95 [1]: 3.125 µM
- Escherichia coli expressing NDM-1 (CLB30016) MITC95 [2]: 12.5 µM
- Klebsiella pneumoniae expressing VIM-1 (IHMA599644) MITC95 [3]: 6.25 µM
- Serratia marcescens expressing IMP-1 (CL5741) MITC95 [4]: 6.25 µM
- IC50 (VIM-1; [8]): 0.739 nM
- IC50 (NDM-1): 0.216 nM
- IC50 (IMP-1): 0.993 nM
- Efflux ratio [5, 7]: 1.00
- P. aeruginosa expressing IMP-1, efflux + (MB9798) MITC95 [6]: 3.125 µM

Structure (SMILES): Cn1c(N)nc2c(-c3ccc(S(=O)(=O)NC[C@H](O)CN)c(S(N)(=O)=O)c3-c3nn[nH]n3)cccc21 [Example 302, (R)-4-(2-amino-1-methyl-1H-benzo[d]imidazol-4-yl)-N1-(3-amino-2-hydroxypropyl)-3-(2H-tetrazol-5-yl)benzene-1,2-disulfonamide]
- P. aeruginosa expressing IMP-1, efflux − (MB9799) MITC95 [1]: 0.7813 µM
- Escherichia coli MITC95 [2]: 0.7813 µM
- Klebsiella pneumoniae MITC95 [3]: 1.563 µM
- Serratia marcescens MITC95 [4]: 0.7813 µM
- IC50 (VIM-1; VIM-1 IC50, fluorescence assay): 0.141 nM
- IC50 (NDM-1): 0.0449 nM
- IC50 (IMP-1): 0.341 nM
- Efflux ratio [5, 7]: 1.00
- P. aeruginosa expressing IMP-1, efflux + (MB9798) MITC95 [6]: 0.7813 µM

Structure (SMILES): NCC1(NS(=O)(=O)c2ccc(-c3ccc(N)nc3)c(-c3nn[nH]n3)c2S(N)(=O)=O)CCNC1 (stereo in doubt) [Example 486, (R)-N1-(3-(aminomethyl)pyrrolidin-3-yl)-4-(6-aminopyridin-3-yl)-3-(2H-tetrazol-5-yl)benzene-1,2-disulfonamide dihydrochloride]
- Concentration of metallo-β-lactamase inhibitor which restores susceptibility of efflux − (MB9799) strain to imipenem ([1]; dihydrochloride): 0.7813
- Escherichia coli MITC95 ([2]; dihydrochloride): 0.7813 µM
- Klebsiella pneumoniae MITC95 [3]: 1.563 µM
- Serratia marcescens MITC95 [4]: 0.7813 µM
- IC50 (VIM-1; VIM-1 IC50, fluorescence assay): 0.321 nM
- IC50 (NDM-1; dihydrochloride): 0.176 nM
- IC50 (IMP-1; dihydrochloride): 0.422 nM
- Efflux ratio ([5]; fold difference between efflux+ (MB9798) and efflux− (MB9799) strains, imipenem at 2 μg/mL, dihydrochloride): 2.00
- Concentration of metallo-β-lactamase inhibitor which restores susceptibility of efflux + (MB9798) strain to imipenem [6]: 1.563

Structure (SMILES): Cn1cnc(CNS(=O)(=O)c2ccc(-c3cccc4sc(N)nc34)c(-c3nnn[nH]3)c2S(N)(=O)=O)n1 [Example 20, 4-(2-amino-1,3-benzothiazol-4-yl)-N^1-[(1-methyl-1H-1,2,4-triazol-3-yl)methyl]-3-(1H-tetrazol-5-yl)benzene-1,2-disulfonamide]
- P. aeruginosa expressing IMP-1, efflux − (MB9799) MITC95 [1]: 6.25 µM
- Escherichia coli expressing NDM-1 (CLB30016) MITC95 [2]: 25 µM
- Klebsiella pneumoniae expressing VIM-1 (IHMA599644) MITC95 [3]: 25 µM
- Serratia marcescens expressing IMP-1 (CL5741) MITC95 [4]: 6.25 µM
- IC50 (VIM-1; [8]): 0.494 nM
- IC50 (NDM-1): 0.0973 nM
- IC50 (IMP-1): 0.817 nM
- Efflux ratio [5, 7]: 1.00
- P. aeruginosa expressing IMP-1, efflux + (MB9798) MITC95 [6]: 6.25 µM

Structure (SMILES): C[C@@H](N)CNS(=O)(=O)c1ccc(-c2ccc(N)nc2)c(-c2nn[nH]n2)c1S(N)(=O)=O [Example 480, (R)—N1-(2-aminopropyl)-4-(6-aminopyridin-3-yl)-3-(2H-tetrazol-5-yl) benzene-1,2-disulfonamide]
- Concentration of metallo-β-lactamase inhibitor which restores susceptibility of efflux − (MB9799) strain to imipenem [1]: 0.7813
- Escherichia coli MITC95 [2]: 0.1953 µM
- Klebsiella pneumoniae MITC95 [3]: 1.563 µM
- Serratia marcescens MITC95 [4]: 0.3906 µM
- IC50 (VIM-1; [8]): 0.249 nM
- IC50 (NDM-1): 0.227 nM
- IC50 (IMP-1): 0.32 nM
- Efflux ratio [5, 9]: 1.00
- Concentration of metallo-β-lactamase inhibitor which restores susceptibility of efflux + (MB9798) strain to imipenem [6]: 0.7813

Structure (SMILES): NCCNS(=O)(=O)c1ccc(-c2cccc(NC(=O)[C@H](N)CO)c2)c(-c2nn[nH]n2)c1S(N)(=O)=O [Example 454, (R)-2-amino-N-(4′-(N-(2-aminoethyl)sulfamoyl)-3′-sulfamoyl-2′-(2H-tetrazol-5-yl)-[1,1′-biphenyl]-3-yl)-3-hydroxypropanamide]
- Concentration of metallo-β-lactamase inhibitor which restores susceptibility of efflux − (MB9799) strain to imipenem [1]: 1.563
- Escherichia coli MITC95 [2]: 1.563 µM
- Klebsiella pneumoniae MITC95 [3]: 6.25 µM
- Serratia marcescens MITC95 [4]: 3.125 µM
- IC50 (VIM-1; [8]): 0.262 nM
- IC50 (NDM-1): 0.757 nM
- IC50 (IMP-1): 3.46 nM
- Efflux ratio [5, 9]: 2.00
- Concentration of metallo-β-lactamase inhibitor which restores susceptibility of efflux + (MB9798) strain to imipenem [6]: 3.125

Structure (SMILES): Nc1ccc2cccc(-c3ccc(S(=O)(=O)N[C@@H]4CNC[C@@H]4N)c(S(N)(=O)=O)c3-c3nn[nH]n3)c2n1 [Example 319, N^1-((3R,4S)-4-aminopyrrolidin-3-yl)-4-(2-aminoquinolin-8-yl)-3-(2H-tetrazol-5-yl)benzene-1,2-disulfonamide]
- P. aeruginosa expressing IMP-1, efflux − (MB9799) MITC95 [1]: 0.7813 µM
- Escherichia coli MITC95 [2]: 1.563 µM
- Klebsiella pneumoniae MITC95 [3]: 1.563 µM
- Serratia marcescens MITC95 [4]: 1.563 µM
- IC50 (VIM-1; [8]): 0.206 nM
- IC50 (NDM-1): 0.0483 nM
- IC50 (IMP-1): 0.265 nM
- Efflux ratio [5, 7]: 1.00
- P. aeruginosa expressing IMP-1, efflux + (MB9798) MITC95 [6]: 0.7813 µM
